This test deals with T1, p23 (Homo sapiens, UniProt Q15185).
T1 construct: made in house; host or cells: coupled transcription/translation in rabbit reticulocyte lysate (TNT, Promega), 35S-labelled
T1 sequence (Q15185 1-160): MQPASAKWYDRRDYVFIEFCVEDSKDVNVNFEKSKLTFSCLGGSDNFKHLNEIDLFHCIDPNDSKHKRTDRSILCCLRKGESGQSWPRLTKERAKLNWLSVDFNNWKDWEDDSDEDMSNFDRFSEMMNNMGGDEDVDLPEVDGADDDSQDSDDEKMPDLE
The test is described as follows: Affinity chromatography on EGCG-conjugated Sepharose, in vitro translated p23. Particulars: 35S-p23 in vitro translated in RRL. It counts as binding. The source says:
Murine AhR and ARNT cDNA (obtained from J. Whitlock and O. Hankinson, respectively) were inserted into pcDNA3 (Invitrogen, Carlsbad, Calif.). Chicken hsp90 constructs (FIG. 5), c90711hsp (wild-type), c90G94D (wild-type point mutant gly94→Asp (Grenert et al., J. Biol. Chem. 272:23843-23850 (1997), which is hereby incorporated by reference in its entirety), c90D92A (wild-type point mutant Asp92→Ala (Sullivan et al., J. Biol. Chem. 268:20373-20379 (1993), which is hereby incorporated by reference in its entirety), c90N221 (wild-type truncation mutant encoding a.a. 221-728 (Sullivan et al., J. Biol. Chem. 268:20373-20379 (1993), which is hereby incorporated by reference in its entirety)), c90N303 (a.a. 303-728) and c90N538 (a.a. 538-728) were kind gifts from Dr. D. Toft (Rochester, Minn.). The C-terminal truncation mutant c900507 (a.a. 1-221) was obtained from Dr. L. Neckers (Rockville, Md.) (Grenert et al., J. Biol. Chem. 272:23843-23850 (1997); Marcu et al., J. Biol. Chem. 275:37181-37186 (2000), which are hereby incorporated by reference in their entirety). Human p23 cDNA was excised from pQE80-p23 (obtained from W. Chan Stockton, Calif.) by sequential digests using the restriction enzymes Sad (3′-end) and BamHI (5′-end) and inserted into the similarly digested pET28a (Novagen, Madison, Wis.). […]

As for `O=C(O[C@@H]1Cc2c(O)cc(O)cc2O[C@@H]1c1cc(O)c(O)c(O)c1)c1cc(O)c(O)c(O)c1` [EGCG, epigallocatechin gallate], the “binding of p23 to immobilized EGCG” value is recorded as “incapable of binding immobilized EGCG”.
